Test results: the Deep4Chem optical property database
Where “and” joins values, the source holds several entries; their conditions need not be identical. Identical values can stand only once.

Assay: solvent given as SMILES

Compound: C1=C(c2ccc(-c3cccs3)s2)CCC(c2ccccc2)C1 (centres undefined)
- absorption maximum (in C1CCOC1): 342 nm
- absorption maximum (in CC#N): 341 nm
- absorption maximum (in CCCCCC): 341 nm
- absorption maximum (in CCO): 341 nm
- absorption maximum (in OCCOCCO): 346 nm
- absorption maximum (in c1ccncc1): 347 nm

Compound: O=P1(c2ccccc2)C(c2cccs2)=C(c2cccs2)c2ccccc21 (centres undefined)
- absorption maximum (in C1CCOC1): 368 nm

Compound: CCn1c2ccccc2sc2c(C#N)c3[nH]c4ccccc4sc3c(C#N)c21
- absorption maximum (in ClC(Cl)Cl): 495 nm

Compound: c1ccc(N2N=C(c3ccc4ccc5cccc6ccc3c4c56)CC2c2ccc3ccc4cccc5ccc2c3c45)cc1 (centres undefined)
- absorption maximum (in ClCCl): 422 nm

Compound: CC(C)(C)c1ccc2oc(-c3ccc(-c4nc5cc(C(C)(C)C)ccc5o4)s3)nc2c1
- absorption maximum (in C1CCCCC1): 372 nm
- absorption maximum (in C1CCOC1): 374 nm
- absorption maximum (in CC1CCCCC1): 373 nm
- absorption maximum (in CC#N): 371 nm
- absorption maximum (in CCCCO): 375 nm
- absorption maximum (in CCO): 373 nm
- absorption maximum (in CN(C)C=O): 374 nm
- absorption maximum (in Cc1ccccc1): 376 nm
- absorption maximum (in Clc1ccccc1Cl): 379 nm
- absorption maximum (in c1ccccc1): 377 nm

Compound: COc1ccc(C2=[N+]3C(=Nc4c5c6ccccc6c6ccc(C(C)(C)C)cc6c5c(-c5ccc(OC)cc5)n4[B-]3(F)F)c3c2c2cc(C(C)(C)C)ccc2c2ccccc32)cc1
- absorption maximum (in Cc1ccccc1): 716 nm

Compound: N#Cc1cccc(N2c3ccccc3C(c3ccccc3)(c3ccccc3)c3ccccc32)c1
- absorption maximum (in Cc1ccccc1): 284 nm

Compound: c1ccc(N(c2ccccc2)c2c3ccccc3c(N(c3ccccc3)c3ccccc3)c3ccccc23)cc1
- absorption maximum (in Cc1ccccc1): 461 nm

Compound: Cc1sc(Cl)cc1-c1nc(-c2ccccc2)[nH]c1-c1cc(Cl)sc1C
- absorption maximum (in CC#N): 298 nm

Compound: CC1=[N+]2C(=C(c3ccc(C#N)cc3)c3ccc(C)n3[B-]2(F)F)C=C1
- absorption maximum (in C1CCCCC1): 517 nm
- absorption maximum (in C1CCOC1): 516 nm
- absorption maximum (in CC#N): 512 nm
- absorption maximum (in CCOC(C)=O): 513 nm
- absorption maximum (in CO): 513 nm
- absorption maximum (in Cc1ccccc1): 519 nm
- absorption maximum (in ClC(Cl)Cl): 519 nm

Compound: CCN(CC)c1ccc2cc(-c3csc(N)c3C#N)c(=O)oc2c1
- absorption maximum (in C1CCOC1): 403 nm
- absorption maximum (in CO): 406 nm
- absorption maximum (in CS(C)=O): 406 nm
- absorption maximum (in Cc1ccccc1): 403 nm
- absorption maximum (in ClCCl): 407 nm

Compound: O=C1OC(=O)[C@H]2[C@@H]1[C@@H]1C[C@H]2c2c1c(-c1ccccc1)c1ccccc1c2-c1ccccc1
- absorption maximum (in ClC(Cl)Cl): 295 nm

Compound: N#Cc1ccc(-c2cn3cc(C#N)c[n+]3[n-]2)cc1
- absorption maximum (in ClCCl): 360 nm

Compound: c1csc(-c2ccc(-c3cccs3)s2)c1
- absorption maximum (in CC#N): 351 nm
- absorption maximum (in ClCCl): 355 nm

Compound: COc1ccc(-c2c3ccccc3c(-c3ccc(OC)cc3)c3cc4ccccc4cc23)cc1
- absorption maximum (in ClCCl): 495 nm

Compound: Cc1ccc(-c2cc(-c3ccccc3)c(C#N)c(=S)[nH]2)cc1
- absorption maximum (in C1CCCCC1): 488 nm
- absorption maximum (in C1COCCO1): 442 nm
- absorption maximum (in CC#N): 430 nm
- absorption maximum (in CCOCC): 440 nm
- absorption maximum (in CN(C)C=O): 438 nm
- absorption maximum (in ClC(Cl)(Cl)Cl): 446 nm

Compound: [NH3+]c1ccc2c(c1)Cc1ccccc1-2
- absorption maximum (in O): 299 nm

Compound: CN1c2cc3nc4cc(Cl)c(Cl)cc4nc3cc2N(C)C1(C)C
- absorption maximum (in CCO): 471 nm

Compound: CC1(C)c2ccccc2N(c2ccc(-c3nc(-c4ccccn4)n(-c4ccc(N5c6ccccc6C(C)(C)c6ccccc65)cc4)n3)cc2)c2ccccc21
- absorption maximum (in ClCCl): 375 nm

Compound: CCCCCCN(CCCCCC)c1ccc(C#Cc2c(F)c(F)c(F)c(F)c2F)cc1
- absorption maximum (in CO): 357 nm
- absorption maximum (in ClCCl): 363 nm

Compound: O=Cc1ccc(C#CC(C#Cc2ccc(C=O)o2)=Cc2ccc(C=C(C#Cc3ccc(C=O)o3)C#Cc3ccc(C=O)o3)s2)o1
- absorption maximum (in ClC(Cl)Cl): 516 nm

Compound: Cc1cc(C)c(B(c2cc(-c3ccc(C(C)(C)C)cc3)sc2-c2sc(-c3ccc(C(C)(C)C)cc3)cc2P(=O)(c2ccccc2)c2ccccc2)c2c(C)cc(C)cc2C)c(C)c1
- absorption maximum (in CO): 396 nm

Compound: Cc1ccc2c(c1)C1(c3ccccc3-c3ccccc31)c1cc(C)ccc1N2c1ccc2c(c1)Oc1ccccc1P2(=O)c1ccccc1 (centres undefined)
- absorption maximum (in Cc1ccccc1): 311.25 nm

Compound: C[Si]1(C)c2cc(-c3cccs3)ccc2C=Cc2ccc(-c3cccs3)cc21
- absorption maximum (in ClCCl): 408 nm

Compound: CCC(C)(C)c1ccc2c(c1)C(CC)(CC)c1cc(-c3ccc4c(c3)C(CC)(CC)c3cc(C(C)(C)CC)ccc3-4)ccc1-2
- absorption maximum (in C1CCCCC1): 331 nm

Compound: O=S(=O)([O-])CCCCN1C=C/C(=C/C=C/C=C/c2cc[n+](CCCCS(=O)(=O)[O-])c3ccccc23)c2ccccc21
- absorption maximum (in CO): 815 nm

Compound: C[n+]1ccn(CCCCc2ccc3c(c2)c2ccccc2n3-c2cc(C#N)c(C#N)cc2-n2c3ccccc3c3cc(CCCCn4cc[n+](C)c4)ccc32)c1
- absorption maximum (in CC#N): 368.93 nm

Compound: CCCCCCCCCCCCN1C(=O)c2cccc3c(N(Cc4ccccn4)Cc4ccccn4)c4ccccc4c(c23)C1=O
- absorption maximum (in C1CCOC1): 497 nm
- absorption maximum (in CCCCCC): 480 nm
- absorption maximum (in CCO): 488 nm
- absorption maximum (in Cc1ccccc1): 492 nm
- absorption maximum (in ClCCl): 500 nm

Compound: NC1=N/C(=N\c2ccccn2)c2cccc3cccc1c23
- absorption maximum (in ClCCl): 365 nm

Compound: C[Si]1(C)O[Si](C)(C)c2cc3c(-c4ccccc4)c4ccccc4nc3cc21
- absorption maximum (in ClCCl): 368 nm

Compound: COc1c(C(C)=O)c(=O)oc2cc(N(C)C)ccc12
- absorption maximum (in ClCCl): 373 nm

Compound: COC(=O)C(Cc1ccc2oc(-c3ccc(N(C)C)cc3)nc2c1)NC(=O)OC(C)(C)C (centres undefined)
- absorption maximum (in C1CCCCC1): 335.1 nm
- absorption maximum (in C1CCOC1): 341.8 nm
- absorption maximum (in C1COCCO1): 340.8 nm
- absorption maximum (in CC1CCCO1): 338.9 nm
- absorption maximum (in CC1COC(=O)O1): 345.1 nm
- absorption maximum (in CC#N): 343.39 nm
- absorption maximum (in CC(C)=O): 343.1 nm
- absorption maximum (in CC(C)CC(C)(C)C): 333 nm
- absorption maximum (in CC(C)CO): 344.49 nm
- absorption maximum (in CC(C)O): 343.9 nm
- absorption maximum (in CC(C)OC(C)C): 339.5 nm
- absorption maximum (in CC(O)CO): 349.5 nm
- absorption maximum (in CCC(C)CC): 333 nm
- absorption maximum (in CCCCC): 332.9 nm
- absorption maximum (in CCCCCC): 333.6 nm
- absorption maximum (in CCCCCCCCC): 334.9 nm
- absorption maximum (in CCCCCCCCCC): 334.9 nm
- absorption maximum (in CCCCCCCO): 345.7 nm
- absorption maximum (in CCCCCCO): 345.6 nm
- absorption maximum (in CCCCCO): 342.7 nm
- absorption maximum (in CCCCO): 345.9 nm
- absorption maximum (in CCO): 346.6 nm
- absorption maximum (in CCOC(C)=O): 339.7 nm
- absorption maximum (in CCOCC): 338.2 nm
- absorption maximum (in CN(C)C=O): 346.5 nm
- absorption maximum (in CO): 346.5 nm
- absorption maximum (in COCCOC): 343.9 nm
- absorption maximum (in CS(C)=O): 348.5 nm
- absorption maximum (in Cc1ccccc1): 342 nm
- absorption maximum (in Cc1ccccc1C): 341.4 nm
- absorption maximum (in ClC(Cl)Cl): 344.6 nm
- absorption maximum (in ClCCl): 344.49 nm
- absorption maximum (in NC=O): 349.41 nm
- absorption maximum (in OC1CCCCC1): 346.5 nm
- absorption maximum (in OCCO): 351.9 nm
- absorption maximum (in c1ccccc1): 342.99 nm

Compound: C(=C\c1c[nH]cn1)/c1cc[n+]2ccc(/C=C/c3c[nH]cn3)cc2c1
- absorption maximum (in CO): 430 nm

Compound: CCN(CC)c1ccc2c(C)cc(=O)oc2c1
- absorption maximum (in C1CCCCC1): 350 nm
- absorption maximum (in CC#N): 367 nm
- absorption maximum (in CCCCCCCCO): 373 nm
- absorption maximum (in CCCCCCO): 373 nm
- absorption maximum (in CCCCO): 374 nm
- absorption maximum (in CCCO): 376 nm
- absorption maximum (in CCO): 376 nm and 435 nm and 373 nm
- absorption maximum (in CCOC(C)=O): 361 nm
- absorption maximum (in OCC(O)CO): 384 nm

Compound: O=S1(=O)C2=C(c3ccccc31)C1(c3ccccc32)c2ccccc2-c2sc3ccccc3c21 (centres undefined)
- absorption maximum (in ClCCl): 360 nm

Compound: COc1cc(N(CC(=O)[O-])CC(=O)[O-])c2nc(COc3cc(C)ccc3N(CC(=O)[O-])CC(=O)[O-])ccc2c1
- absorption maximum (in O): 356 nm
